Assay results taken from patent US9023356B2, “Treatment method using EGFR antibodies and SRC inhibitors and related formulations” (Ludwig Institute for Cancer Research Ltd, priority 2007, dated 2015).
Like-named read-outs stand apart in the source and are kept apart here.

Key:
[1] = system: Glioma cell lines in vitro; details: full text: Resistant glioma expresses IGFR-1 which is further up-regulated by AG1478; effect appears mediated through PI3-K/Akt; single cell line in vitro; cited from earlier work
[2] = system: BT474 breast and MKN7 gastric cancer cells in vitro; details: full text: Activation of erbB2/3 heterodimers by heregulin generated resistance; no in vivo data; cited from earlier work
[3] = system: Patients with NSCLC; details: full text: A secondary mutation in EGFR kinase causes resistance; cited from earlier work
[4] = system: Multiple cell lines in vitro; details: full text: Sensitivity correlated with wt EGFR number; no in vivo data; cited from earlier work
[5] = system: Multiple cell lines in vitro; details: full text: Sustained signaling through Akt or Erk may cause resistance; no in vivo data; cited from earlier work
[6] = system: de2-7 EGFR phosphorylation in U87MG glioma cells; experiment: Immunoblotting of de2-7 EGFR phosphorylation after Src-family kinase inhibitors; type: cell-based; details: 10 μM, 30 minutes or 24 h, serum starved cells
Protocol: FIG. 7A-7C. Interaction between de2-7 EGFR and Src. (A) Cells were serum starved overnight prior to treatment with 10 μM PP1 or PP2 or vehicle (DMSO) for 30 minutes or 24 h prior to immunoprecipitation with mAb528, mAb806 or an irrelevant isotype control. Immunoblotting was performed with an antibody specific for Y845 of the EGFR, while total de2-7 EGFR was visualized with the rabbit c-terminal polyclonal antibody. Results shown are representative of four independent experiments. […] Mice were treated with 1 mg mAb 806 three times per week for two weeks (days 18, 20, 22, 25, 27 and 29).
Cells were lysed in cold lysis buffer (30 mM HEPES, 150 mM NaCl, 10 mM NaF, 1% Triton X-100, 200 μM NaO3V, 0.4% H2O2 and the protease inhibitor cocktail set 1 (Calbiochem, San Diego, Calif.) containing 500 μM AEBSF, 150 nM Aprotinin, 1 μM E-64 protease inhibitor, 0.5 mM EDTA and 1 μM Leupeptin, pH 7.4). Lysates were immunoprecipitated with the mAb 806 or 528 and the resultant precipitates analyzed by immunoblotting as described by us in detail (21).
Activation of the wt EGFR leads to the transient activation of Src kinase. In a synergistic manner, activation of Src leads to phosphorylation tyrosine 845 (Y845) on the EGFR, which is not an auto-phosphorylation site rather a target for Src phosphorylation (24). Using an antibody specific to Y845 we examined the phosphorylation of Y845 in the de2-7 EGFR.

[7] = system: Multiple cell lines in vitro and xenografts; details: full text: More difficult to inhibit the phosphorylation of EGFR in the presence of ErbB2; cited from earlier work
[8] = system: Patients with NSCLC; details: full text: Patients with activating mutations in the EGFR kinase domain more likely to respond; not all patients with mutations respond; cited from earlier work
[9] = system: Multiple cell lines in vitro; details: full text: Sensitivity correlated with wt EGFR number. Constitutive active MAPK increased resistance; no in vivo data; cited from earlier work
[10] = system: A431 and MDA-468 breast cancer cells in vitro; details: full text: Sustained signaling through Akt causes resistance. Presence of PTEN increases effectiveness of EGFR therapeutics; no in vivo data; cited from earlier work
[11] = system: Patients with colorectal cancer; details: full text: Response correlated with increase in EGFR copy number; small sample numbers; cited from earlier work
[12] = system: Multiple cell lines in vitro and xenografts; details: full text: Sensitivity correlated with wt EGFR number; cited from earlier work

COc1cc2ncnc(Nc3cccc(Cl)c3)c2cc1OC [AG1478]
Observation [1]: Resistant glioma

Cc1[nH]c2ncnc(Nc3cccc(Cl)c3)c2c1C [CGP59326]
Observation [2]: Activation of erbB2/3

C#Cc1cccc(Nc2ncnc3cc(OCCOC)c(OCCOC)cc23)c1 [OSI-774]
Observation [3]: A secondary mutation

COc1cc2ncnc(Nc3cccc(Br)c3)c2cc1OC [PD153035]
Observation [4]: Sensitivity correlated | Observation [5]: Sustained signaling

CC(C)(C)n1nc(-c2ccc(Cl)cc2)c2c(N)ncnc21 [PP2, (4-chlorophenyl)-7-(t-butyl)pyrazolo[3,4-d]-pyrimidine]
Phosphorylation at Y845 of de2-7 EGFR [6]: rapidly blocked | autophosphorylation site at Y1173 of de2-7 EGFR [6]: relatively unaffected

COc1cc2ncnc(Nc3ccc(F)c(Cl)c3)c2cc1OCCCN1CCOCC1 [ZD1839]
Observation [7]: More difficult to inhibit | Observation [3]: A secondary mutation | Observation [8]: Patients with activating | Observation [5]: Sustained signaling | Observation [9]: Sensitivity correlated | Observation [10]: Sustained signaling

ABX: monoclonal antibody directed to the EGFR
Observation [11]: Response correlated

B1: EMD72000: EGFR inhibitor listed in Table 1 (antibody, chains of the INN, looked up, V domains shown)
VH: QVQLVQSGAEVKKPGASVKVSCKASGYTFTSHWMHWVRQAPGQGLEWIGEFNPSNGRTNYNEKFKSKATMTVDTSTNTAYMELSSLRSEDTAVYYCASRDYDYDGRYFDYWGQGTLVTVSS
VL: DIQMTQSPSSLSASVGDRVTITCSASSSVTYMYWYQQKPGKAPKLLIYDTSNLASGVPSRFSGSGSGTDYTFTISSLQPEDIATYYCQQWSSHIFTFGQGTKVEIK
Observation [12]: Sensitivity correlated
